As usually defined, the Ki is the dissociation constant of the complex between target and ligand, obtained from inhibition or displacement.

T1 sequence (Q99558 400-655 limits assumed): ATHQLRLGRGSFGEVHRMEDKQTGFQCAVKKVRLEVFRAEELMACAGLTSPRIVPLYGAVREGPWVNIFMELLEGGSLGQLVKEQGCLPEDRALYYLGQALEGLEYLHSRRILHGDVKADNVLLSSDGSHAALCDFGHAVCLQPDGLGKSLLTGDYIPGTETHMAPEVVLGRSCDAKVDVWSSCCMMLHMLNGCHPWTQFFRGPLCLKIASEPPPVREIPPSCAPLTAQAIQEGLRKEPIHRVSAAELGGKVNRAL

This experiment concerns the target T1, NIK (Homo sapiens, UniProt Q99558).
T1 construct: Both assays utilize a truncated form of NIK containing only the catalytic domain; made in house; host or cells: baculovirus expression system (insect cells implied)
Description: homogenous time resolved fluorescence (HTRF) assay for NIK Ki measurement. Format: biochemical. To be noted: truncated NIK (catalytic domain only), autophosphorylation; 10 nM enzyme; 20, 100, 200 or 500 μM ATP; room temperature, 2 hours; read-out: Ki activity in the homogenous time resolved fluorescence (HTRF) assay for NIK. Background: TR-FRET usually uses a lanthanide donor and a delayed reading to cut background.
Take `Cc1cc(C(C)(O)C#Cc2ccc3c(c2)N(c2nc(N)ncc2Cl)CC32CCS(=O)(=O)CC2)no1` (racemic) [Example 216, (rac)-4-(1-(2-Amino-5-chloro-4-pyrimidinyl)-1′,1′-dioxido-1,2,2′,3′,5′,6′-hexahydrospiro[indole-3,4′-thiopyran]-6-yl)-2-(5-methyl-3-isoxazolyl)-3-butyn-2-ol]: the inhibition constant (Ki) was < 1000 nM.

Regarding `CC(O)(C#Cc1cncc(C(=O)Nc2ccncn2)c1)c1nccs1` (centres unmarked) [Example 168, 5-(3-Hydroxy-3-(thiazol-2-yl)but-1-ynyl)-N-(pyrimidin-4-yl)nicotinamide], the Ki is 1000 to 30000 nM. Turning to `C[C@@](O)(C#Cc1ccc2c(c1)N(c1nc(N)ncc1Cl)CC21CN(CCS(C)(=O)=O)C1)c1nccs1` [Example 184, (R)-4-(1′-(2-amino-5-chloropyrimidin-4-yl)-1-(2-(methylsulfonyl)ethyl)spiro[azetidine-3,3′-indoline]-6′-yl)-2-(thiazol-2-yl)but-3-yn-2-ol], the Ki was < 1000 nM.

For `CC(O)(C#Cc1ccc2c(c1)N(c1ccncc1Cl)CC2(C)C)c1nccs1` (centres unmarked) [Example 313, 4-(1-(3-Chloro-4-pyridinyl)-3,3-dimethyl-2,3-dihydro-1H-indol-6-yl)-2-(1,3-thiazol-2-yl)-3-butyn-2-ol], the Ki was in the range of 1000 to 30000 nM. Next, `Cc1noc(C(C)(O)C#Cc2ccc3c(c2)N(c2nc(N)ncc2Cl)CC3)n1` (centres unmarked) [Example 1, 4-(1-(2-amino-5-chloropyrimidin-4-yl)indolin-6-yl)-2-(3-methyl-1,2,4-oxadiazol-5-yl)but-3-yn-2-ol]: < 1000 nM; `CC(O)(C#Cc1ccc2c(c1)N(c1ccnc(N)n1)CC2)c1ccsc1` (centres unmarked) [Example 274, 4-(1-(2-Amino-4-pyrimidinyl)-2,3-dihydro-1H-indol-6-yl)-2-(3-thienyl)-3-butyn-2-ol]: < 1000 nM. With `Nc1ncc(Cl)c(C2=CC3(CCOCC3)c3ccc(C#CC4(O)CCCC4)cc32)n1` [Example 219, 1-((3-(2-Amino-5-chloro-4-pyrimidinyl)-2′,3′,5′,6′-tetrahydrospiro[indene-1,4′-pyran]-5-yl)ethynyl)cyclopentanol], the Ki was < 1000 nM. For `Nc1ncc(OCCN2CCOCC2)c(-c2c[nH]c3ccc(C#CC4(O)CCCC4)cc23)n1` [Example 230, 1-((3-(2-Amino-5-(2-(4-morpholinyl)ethoxy)-4-pyrimidinyl)-1H-indol-5-yl)ethynyl)cyclopentanol] the value was 1000 to 30000 nM; for `CC(O)(C#Cc1ccc2ncc(-c3ccncn3)n2c1)c1nccs1` (centres unmarked) [Example 302, 4-(3-(4-pyrimidinyl)imidazo[1,2-a]pyridin-6-yl)-2-(1,3-thiazol-2-yl)-3-butyn-2-ol], < 1000 nM; for `COCCN1Cc2cnc(N)nc2-c2c(n(C)c3ccc(C#CC4(O)CCCC4)cc23)C1=O` [Example 246, 2-Amino-1′-((1-hydroxycyclopentyl)ethynyl)-6-(2-methoxyethyl)-8-methyl-5,8-dihydropyrimido[4′,5′:5,6]azepino[3,4-b]indol-7(6H)-one], < 1000 nM. For `CC1(C)CN(c2nc(N)ncc2Cl)c2cc(C#C[C@](C)(O)c3nccs3)ccc21` (single isomer, unassigned) [Example 41] the value was 1000 to 30000 nM; for `CCN(CC)CCn1cc(-c2nc(N)ncc2Cl)c2cc(C#CC3(O)CCCC3)ccc21` [Example 127, 1-(2-(3-(2-amino-5-chloropyrimidin-4-yl)-1-(2-(diethylamino)ethyl)-1H-indol-5-yl)ethynyl)cyclopentanol], < 1000 nM; for `COC(=O)C(C)(O)C#Cc1ccc2c(c1)N(c1nc(N)ncc1Cl)CC2(C)C` (centres unmarked) [Example 48, methyl 4-(1-(2-amino-5-chloro-4-pyrimidinyl)-3,3-dimethyl-2,3-dihydro-1H-indol-6-yl)-2-hydroxy-2-methyl-3-butynoate], < 1000 nM. With `CC(O)(C#Cc1ccc(O[C@H]2CCOC2)c(Nc2nc(N)ncc2Cl)c1)c1nccs1` (some centres unmarked) [Example 155], the Ki is < 1000 nM.

Values taken from patent US20110086834A1, “ALKYNYL ALCOHOLS AS KINASE INHIBITORS” (AMGEN INC., priority 2008, published 2011).
